Measured values as given in patent US10696615B2, “Prenylated hydroxystilbenes” (The University of Sydney, priority 2011, dated 2020).

Legend:
CCRF-CEM = assay: NCI in vitro cancer screen, Leukemia; assay type: cell-based, human
EKVX = assay: NCI in vitro cancer screen, Non-Small Cell Lung Cancer; assay type: cell-based, human
HOP-62 = assay: as above; assay type: cell-based, human; settings: HOP-62
HOP-92 = assay: as above; assay type: cell-based, human; settings: HOP-92
NCI-H226 = assay: as above; assay type: cell-based, human; settings: NCI-H226
NCI-H23 = assay: as above; assay type: cell-based, human; settings: NCI-H23
HCT-116 = assay: NCI in vitro cancer screen, Colon Cancer; assay type: cell-based, human; settings: HCT-116
HT29 = assay: NCI in vitro cancer screen, Colon Cancer; assay type: cell-based, human; settings: HT29
KM12 = assay: NCI in vitro cancer screen, Colon Cancer; assay type: cell-based, human; settings: KM12
SW-620 = assay: NCI in vitro cancer screen, Colon Cancer; assay type: cell-based, human; settings: SW-620
SF-268 = assay: NCI in vitro cancer screen, CNS Cancer; assay type: cell-based, human; settings: SF-268
SF-539 = assay: NCI in vitro cancer screen, CNS Cancer; assay type: cell-based; settings: SF-539
SNB-19 = assay: NCI in vitro cancer screen, CNS Cancer; assay type: cell-based, human; settings: SNB-19
U251 = assay: NCI in vitro cancer screen, CNS Cancer; assay type: cell-based, human; settings: U251
SK-MEL-28 = assay: NCI in vitro cancer screen, Melanoma; assay type: cell-based, human; settings: SK-MEL-28
SK-MEL-5 = assay: NCI in vitro cancer screen, Melanoma; assay type: cell-based, human; settings: SK-MEL-5
UACC-257 = assay: NCI in vitro cancer screen, Melanoma; assay type: cell-based, human; settings: UACC-257
IGROV1 = assay: NCI in vitro cancer screen, Ovarian Cancer; assay type: cell-based, human; settings: IGROV1
OVCAR-3 = assay: NCI in vitro cancer screen, Ovarian Cancer; assay type: cell-based, human; settings: OVCAR-3
OVCAR-4 = assay: NCI in vitro cancer screen, Ovarian Cancer; assay type: cell-based, human; settings: OVCAR-4
OVCAR-5 = assay: NCI in vitro cancer screen, Ovarian Cancer; assay type: cell-based, human; settings: OVCAR-5
OVCAR-8 = assay: NCI in vitro cancer screen, Ovarian Cancer; assay type: cell-based, human; settings: OVCAR-8
CAKI-1 = assay: NCI in vitro cancer screen, Renal Cancer; assay type: cell-based, human; settings: CAKI-1
TK-10 = assay: NCI in vitro cancer screen, Renal Cancer; assay type: cell-based, human; settings: TK-10
DU-145 = assay: NCI in vitro cancer screen, Prostate Cancer; assay type: cell-based, human; settings: DU-145
MCF7 = assay: NCI in vitro cancer screen, Breast Cancer; assay type: cell-based, human; settings: MCF7
HS 578T = assay: NCI in vitro cancer screen, Breast Cancer; assay type: cell-based, human
MDA-MB-468 = assay: NCI in vitro cancer screen, Breast Cancer; assay type: cell-based, human; settings: MDA-MB-468
[1] = Homo sapiens, read-out: LC50 (the source's name)

COc1cc(/C=C/c2cc(O)c(CC=C(C)C)c(O)c2)ccc1O [USYDS13, (E)-4-(3-methyl-2-buten-1-yl)-3,4′,5-trihydroxy-3′-methoxystilbene]
TGI (CCRF-CEM): >100 µM
GI50 (CCRF-CEM; Homo sapiens): 6.56 µM
CC50 (CCRF-CEM; [1]): > 100 µM
TGI (EKVX): 54.6 µM
GI50 (EKVX; Homo sapiens): 12.8 µM
CC50 (EKVX; [1]): > 100 µM
TGI (HOP-62): 20.4 µM
GI50 (HOP-62; Homo sapiens): 5.66 µM
CC50 (HOP-62; [1]): 53.7 µM
TGI (HOP-92): 30.5 µM
GI50 (HOP-92; Homo sapiens): 5.96 µM
CC50 (HOP-92; [1]): > 100 µM
GI50 (NCI-H226; Homo sapiens): 10.9 µM
LC50 (50% lethal concentration) (NCI-H226; Homo sapiens): > 100 µM
TGI (NCI-H226): 50.1 µM
GI50 (NCI-H23; Homo sapiens): 5.66 µM
LC50 (NCI-H23; Homo sapiens): > 100 µM
TGI (NCI-H23): 28.0 µM
TGI (HCT-116): 15.6 µM
GI50 (HCT-116; Homo sapiens): 4.33 µM
LC50 (concentration killing 50% of cells) (HCT-116; Homo sapiens): 45.6 µM
TGI (HT29): 36.9 µM
GI50 (HT29; Homo sapiens, HT-29): 17.8 µM
CC50 (HT29; Homo sapiens, HT-29, read-out: LC50 (the source's name)): 76.8 µM
GI50 (KM12; Homo sapiens): 3.15 µM
CC50 (KM12; [1]): 49 µM
TGI (KM12): 16.1 µM
GI50 (SW-620; Homo sapiens): 3.98 µM
CC50 (SW-620; [1]): 42.8 µM
TGI (SW-620): 15.9 µM
GI50 (SF-268; Homo sapiens): 6.17 µM
CC50 (SF-268; [1]): > 100 µM
TGI (SF-268): 32.9 µM
GI50 (SF-539; Homo sapiens): 7.32 µM
CC50 (SF-539; [1]): > 100 µM
TGI (SF-539): 29.9 µM
GI50 (SNB-19; Homo sapiens): 8.02 µM
CC50 (SNB-19; [1]): 64.5 µM
TGI (SNB-19): 24.2 µM
GI50 (U251; Homo sapiens, U-251): 5.47 µM
CC50 (U251; Homo sapiens, U-251, read-out: LC50 (the source's name)): 57.6 µM
TGI (U251): 20.7 µM
GI50 (SK-MEL-28; Homo sapiens): 5.64 µM
LC50 (SK-MEL-28; Homo sapiens): 70.5 µM
TGI (SK-MEL-28): 22.5 µM
GI50 (SK-MEL-5; Homo sapiens): 2.5 µM
CC50 (SK-MEL-5; [1]): 29.2 µM
TGI (SK-MEL-5): 8.54 µM
GI50 (UACC-257; Homo sapiens): 5.35 µM
CC50 (UACC-257; [1]): 44 µM
TGI (UACC-257): 18.1 µM
GI50 (IGROV1; Homo sapiens, IGROV-1): 6.7 µM
CC50 (IGROV1; Homo sapiens, IGROV-1, read-out: LC50 (the source's name)): > 100 µM
TGI (IGROV1): 86.2 µM
GI50 (OVCAR-3; Homo sapiens): 7.98 µM
CC50 (OVCAR-3; [1]): > 100 µM
TGI (OVCAR-3): 39.8 µM
GI50 (OVCAR-4; Homo sapiens): 9.68 µM
CC50 (OVCAR-4; [1]): > 100 µM
TGI (OVCAR-4): 74.8 µM
GI50 (OVCAR-5; Homo sapiens): 13.9 µM
CC50 (OVCAR-5; [1]): > 100 µM
TGI (OVCAR-5): 79.3 µM
GI50 (OVCAR-8; Homo sapiens): 5.48 µM
CC50 (OVCAR-8; [1]): > 100 µM
TGI (OVCAR-8): 59.8 µM
TGI (CAKI-1): >100 µM
GI50 (CAKI-1; Homo sapiens): 5.9 µM
CC50 (CAKI-1; [1]): > 100 µM
GI50 (TK-10; Homo sapiens): 6.98 µM
LC50 (TK-10; Homo sapiens): > 100 µM
TGI (TK-10): 31.4 µM
TGI (DU-145): 31.6 µM
GI50 (DU-145; Homo sapiens): 6.82 µM
CC50 (DU-145; [1]): > 100 µM
GI50 (MCF7; Homo sapiens): 0.68 µM
CC50 (MCF7; [1]): 82.7 µM
TGI (MCF7): 19.9 µM
TGI (HS 578T): 15.0 µM
GI50 (HS 578T; Homo sapiens): 2.4 µM
CC50 (HS 578T; [1]): > 100 µM
GI50 (MDA-MB-468; Homo sapiens): 1.68 µM
CC50 (MDA-MB-468; [1]): > 100 µM
TGI (MDA-MB-468): 7.63 µM
